Experimental data: patent US20070123699A1, “Peptide conjugate useful for cell nucleus molecular imaging and tumor therapy” (priority 2002, published 2007)

What was measured:
[1] = tested on: DU-145 prostate cancer cells; assay: MRI: DU-145 cell uptake and efflux of Gd^3+ conjugates (T1-weighted signal, relaxivity); assay type: cell-based, human
Method: (I) MRI: DU-145 Cell Uptake of the CNN—Gd^3+-Complex and CNRN—Gd^3+-Complex Compared to that of Magnevist®
DU-145 cells were harvested and divided into tubes (Falcon®, Becton Dickinson USA, Cat. No.: 35.2096) (Cell No.: 40×10^6 cells per tube). The CNN—Gd^3+-complex (Table 1, #1552a), the CNRN—Gd^3+-complex (Table 1, #1552b) and the Magnevist® were each dissolved in MEM in a concentration of 0.5 mM and were then incubated for 10, 20, 30 minutes up to 3 hours. […]
MR imaging used a 1.5-T whole body Siemens Magnetom Vision Plus with a standard circular polarized head coil. […] T1 and T2 relaxation-times within the pellets of the three tubes (CNN—Gd^3+, CNRN—Gd^3+, Magnevist) were measured to evaluate the intracellular relaxivity of the respective contrast agents (R=1/T1). The T1-relaxation time was measured by means of an inversion-recovery-sequence (TR: 5000 ms/TE: 76 ms/TI: 25-4000 ms, 17 different TI-values, scan-time 15×25 sec, FOV: 160 mm×160 mm, Matrix: 132×256, slice thickness: 7 mm, pixel size: 1.21×0.63 mm). T2 relaxation-time was measured by a multi-echo-sequence (TR: 5000 ms/16 TE-values: 30 ms-245 ms, FOV: 250 mm×250 mm, Matrix: 256×256, slice thickness: 5 mm, pixel size: 0.98×0.98 mm, scan time: 21 min 21 sec). […]

[2] = i.v. administered alkylating drug, brain tumor; cited from earlier work

| Compound | MRI signal change above that of DU-145 cells incubated solely in MEM ([1]; DU-145 cells, 0.5 mM, T1-weighted MRI) | relaxivity R (R=1/T1) within the DU-145 cell pellets ([1]; after incubation with contrast agent 0.5 mM) | fraction of drug in the blood passing the blood-brain barrier [2] |
| --- | --- | --- | --- |
| CNC[C@H](O)[C@@H](O)[C@H](O)[C@H](O)CO.CNC[C@H](O)[C@@H](O)[C@H](O)[C@H](O)CO.O=C([O-])CN(CCN(CC(=O)[O-])CC(=O)O)CCN(CC(=O)[O-])CC(=O)O.[Gd+3] [Magnevist, reference compound] | no signal change | 0.00069 |  |
| Cn1nnc2c(C(N)=O)ncn2c1=O [Temodal] |  |  | about 30% |
